The nature of series [1]: Particle size and surface potential of siRNA MENDs prepared by t-BuOH injecting method. It is filed as physicochemical. Particulars: siRNA MEND; for PDI / size (nm) / zeta (mV): cationic lipid/cholesterol=70/30, DMG-PEG2000 3%. How it is done:
(§1) A lipid solution in t-BuOH with a composition of cationic lipid/cholesterol=70/30, DMG-PEG2000 3% and a total lipid amount of 3000 nmol/400 μL (7.5 mM) was prepared in a 1.7 mL tube. In a separate 1.7 mL tube, an siRNA solution was prepared by mixing an siRNA aqueous solution containing siRNA (160 μg) and 20 mM malate buffer (pH 4.00, 30 mM NaCl) to total 50 μL. With vigorous stirring of the lipid solution, the siRNA solution was gradually added dropwise, and the mixed solution was taken in a 1 mL syringe. Then, 20 mM malate buffer (pH 4.00, 30 mM NaCl, 2 mL) was added into a 5 mL tube, and the mixed solution was gradually injected with vigorous stirring. Thereafter, the mixture was further diluted with PBS (7 mL) and centrifuged at 1000 g, 30° C. for 10 min in Amicon Ultra-15-100K to a volume of less than 1.5 mL. PBS (15 mL) was added, and the solution was centrifuged again to about 500-1000 μL. Finally, the MEND solution was adjusted by diluting with PBS to the object lipid concentration.
The particle size and surface potential of various MENDs were measured according to the method described in [Experimental Example 2] and the results are shown in Table 6.

The test system of the next series is Factor VII (FVII). The series can be described thus: Knockdown effect of siRNA-encapsulated MEND prepared by t-BuOH injecting method. To be noted: varying doses of siRNA, tail vein. It is filed as in vivo, ICR mice. How it is done: A MEND solution prepared by the method shown in [Experimental Example 28] was administered to 4-week-old male ICR mice at 3 mg siRNA/kg from the tail vein, and blood was collected 24 hr later. This blood sample was centrifuged at 1000 g, 10 min, 4° C., and the supernatant was recovered to obtain plasma. The amount of Factor VII (FVII) in the plasma was quantified by BIOPHEN FVII CHROMOGENIC ASSAY (HYPHEN BioMed).
as §1
MENDs prepared by the method shown in Experimental Example 32 were administered by a method similar to the method shown in Experimental Example 30 with varying doses of siRNA, and the knockdown effect was evaluated. The results are shown in FIG. 35, FIG. 36, and FIG. 37.

Series [2] in a line: Particle size and surface potential of pDNA-encapsulating MENDs, dynamic light scattering (Zetasizer Nano). It is filed as physicochemical. Particulars: pDNA MEND, cationic lipid:SOPE:Chol = 3:4:3. How it is done: A solution of pDNA encoding luciferase gene and protamine (CALBIOCHEM) solution were diluted with 10 mM HEPES buffer to 0.3 mg/mL and […], respectively. While stirring 0.3 mg/mL pDNA (125 μL), 0.24 mg/mL protamine (125 μL) was added dropwise in small portions to prepared an electrostatic complex of protamine and pDNA (N/P ratio=1.2) as a core of the vector. In the method described in the following (2), 10 mM HEPES buffer (pH 5.3) was used and, in the method described in (3), 10 mM HEPES buffer (pH 7.4) was used.
A lipid solution in ethanol was prepared by mixing 5 mM cationic lipid, 5 mM phospholipid and 5 mM cholesterol (Chol) at desired ratios to achieve 165 nmol total lipid in an Eppendorf tube, further adding various PEG lipids (1 mM solution in ethanol) in an amount corresponding to 3 mol % of the total lipid, and adding ethanol to achieve a total volume of 100 μL. While stirring the lipid solution in a vortex mixer, 100 μL of the nucleic acid electrostatic complex (10 mM HEPES; pH 5.3) prepared in [Experimental Example 1] (1) was quickly added, and thereafter 10 mM HEPES buffer (1.8 mL, adjusted to pH 5.3) was added to dilute the mixture to an ethanol concentration of 5%. The mixture was concentrated to about 50 μL by ultrafiltration using Amicon Ultra 4 (Millipore) under centrifugation conditions (room temperature, 2267 rpm, 20 min). Thereafter, it was diluted to 4 mL with 100 mM HEPES buffer (adjusted to pH 7.4), and again concentrated by centrifugation (2267 rpm, 20 min) under room temperature conditions. Finally, it was diluted with 10 mM HEPES buffer (pH 7.4) to a desired lipid concentration.
A solution of each lipid in chloroform (5 mM DOTAP 24.75 μL, 5 mM DOPE 33 μL, 5 mM Chol 24.75 μL) were mixed in a glass test tube at DOTAP:DOPE:Chol=3:4:3 to achieve 412.5 nmol total lipid. Ethanol was added to a total amount of 250 μL, and the mixture was dried under reduced pressure in a desiccator. The solvent was evaporated to give a lipid thin film. To the lipid thin film was added 250 μL of the gene electrostatic complex (in 10 mM HEPES; pH 7.4) prepared in [Experimental Example 1] (1) to a total lipid concentration of 1.65 mM, and the mixture was stood at room temperature for 10 min to allow for hydration, and sonicated by a sonicator (AIWA MEDICAL […] CO., LTD.) for 1 min.
The particle size and the surface potential were measured by the dynamic light scattering method (Zetasizer Nano; Malve Rn). The particle size and the surface potential of the various MENDs prepared by the preparation method of [Experimental Example 1] are shown in Table 3. The charge of B-2 and DODAP at physiological pH was in a preferable mode of −10 to +10 mV, whereas that of B-2-1 was +12.3, which is not less than +10 mV.
(1) MEND having a composition of B-2-4 (Example 4):DOPE:Chol=3:3:4 or B-2-5 (Example 5):POPE:Chol=3:4:3 was prepared according to the method described in [Experimental Example 1] (1) and (2).
The particle size and the surface potential were measured by the dynamic light scattering method (Zetasizer Nano; Malvern). The particle size and the surface potential of the various MENDs prepared by the preparation method of [Experimental Example 1] are shown in Table 4.

The next series concerns HT1080 cells. As to the kind of experiment: Gene expression by MEND (luciferase assay, RLU/mg protein). To be noted: cationic lipid:SOPE:Chol=3:4:3, PEG2000DSG; pDNA 0.4 μg/well, 24 hr. The format is cell-based. How it is done: Using B-2 (Example 1), B-2-1 (Comparative Example 1), and DODAP (Comparative Example 2) as cationic lipids, MENDs having a composition of cationic lipid:SOPE:Chol=3:4:3 were prepared by the method described in [Experimental Example 1] (2). For the preparation, PEG2000DSG was used as PEG lipid, and MEND solutions corresponding to 0.55 mM of the lipid concentration were prepared. For cationic MEND, lipids having a composition of DOTAP:DOPE:Chol:=3:4:3 were used, and the cationic MEND was prepared according to the method described in [Experimental Example 1] (3).
HT1080 cells were plated on a 24-well plate at 4×10^4 cells/500 μL/well 24 hr before, various MENDs were diluted with DMEM (FBS 10%+) to a pDNA amount of 0.4 μg/500 μL/well and transfected. 24 hr later, the cells were washed with PBS(−) (500 μL), 1× Lysis buffer was added to each well by 75 μL, and the mixture was stood at −80° C. for 30 min or longer. The frozen 24-well plate was thawed on ice, the cells were detached with a cell scraper, and the total amount thereof was transferred into an Eppendorf tube and centrifuged under the conditions of 15000 rpm, 4° C., 5 min. The supernatant (50 μL) was recovered in a different Eppendorf tube, and used for luciferase assay and BCA assay.
20 μL thereof was mixed with a Luciferase assay substrate (50 μL), and the luciferase activity in a given time was measured by a luminometer. The obtained lysate was diluted 5-fold with DDW to achieve 25 μL total volume. Thereto was added BCA Protein Assay Reagent (200 μL), and the mixture was stood at 37° C. for 30 min. Thereafter, the absorbance at 562 nm was measured, and the protein amount of the sample was calculated from the absorbance of a BSA solution having a known concentration. The luciferase activity (RLU) was adjusted by dividing with protein amount (mg), and the luciferase activity per cell protein amount (RLU/mg protein) was calculated.
Using B-2 (Example 1), B-2-2 (Example 2), and B-2-3 (Example 3) as cationic lipids, MENDs having a composition of cationic lipid:SOPE:Chol=3:4:3 were prepared by the method described in [Experimental Example 1] (2). For the preparation, PEG2000DSG was used as PEG lipid, and MEND solutions corresponding to 0.55 mM of the lipid concentration were prepared. The gene expression was evaluated by the method described in [Example 4] (2).
Using compositions of B-2-4 (Example 4):DOPE:Chol=3:3:4, B-2-5 (Example 5):POPE:Chol=3:3:4, B-2 (Example 1):SOPE:Chol=5:3:2 as lipids, MENDs were prepared according to [Experimental Example 1](1) and (2). For the preparation, PEG2000-DMG was used as PEG lipid, and MEND solutions corresponding to 0.55 mM of the lipid concentration were prepared.
The gene expression activity was evaluated by the method described in [Experimental Example 4] (2).

SMILES strings stand for the structures.

Regarding `Cc1c(C)c2c(c(C)c1OC(=O)CCC(=O)OCCCC1CCN(CCSSCCN3CCC(CCCOC(=O)CCC(=O)Oc4c(C)c(C)c5c(c4C)CCC(C)(CCCC(C)CCCC(C)CCCC(C)C)O5)CC3)CC1)CCC(C)(CCCC(C)CCCC(C)CCCC(C)C)O2` (centres unmarked) [TS-P4C3], in series [1], the PDI turned out to be 0.09, the “size (nm)” value came out at 123 nm and the “zeta (mV)” value was −6.6 mV. Besides, the “FVII expression level (knockdown effect)” value with Factor VII (FVII) is “highest knockdown effect”.
Regarding `Cc1c(C)c2c(c(C)c1OC(=O)CCC(=O)OCCC1CCN(CCSSCCN3CCC(CCOC(=O)CCC(=O)Oc4c(C)c(C)c5c(c4C)CCC(C)(CCCC(C)CCCC(C)CCCC(C)C)O5)CC3)CC1)CCC(C)(CCCC(C)CCCC(C)CCCC(C)C)O2` (centres unmarked) [TS-P4C2], in series [1], the PDI turned out to be 0.07, the “size (nm)” value was 125 nm and the “zeta (mV)” value is −8.5 mV. For the same compound, the “FVII expression level (knockdown effect)” value in the series with Factor VII (FVII) was “highest knockdown effect”.
Consider `Cc1c(C)c2c(c(C)c1OC(=O)CCC(=O)OCC1CCCCN1CCSSCCN1CCCCC1COC(=O)CCC(=O)Oc1c(C)c(C)c3c(c1C)CCC(C)(CCCC(C)CCCC(C)CCCC(C)C)O3)CCC(C)(CCCC(C)CCCC(C)CCCC(C)C)O2` (centres unmarked) [TS-P2C1], for which, in series [1], the PDI was determined as 0.12, the “size (nm)” value is on record as 114 nm and the “zeta (mV)” value is −12.2 mV.
In the case of `CCCCC/C=C\C/C=C\CCCCCCCC(=O)OCCCN(C)CCSSCCN(C)CCCOC(=O)CCCCCCC/C=C\C/C=C\CCCCC` [Example B-2-3], in series [2], the PDI came out at 0.091, the “size (nm)” value is 148.7 nm and the “zeta (mV)” value is −7.97 mV. Further, the “gene expression activity (luciferase activity per cell protein)” value in the series on HT1080 cells is recorded as “inferior to that of B-2, but exceeds that of conventional pH-responsive lipid cationic lipid, DODAP”.
With `Cc1c(C)c2c(c(C)c1OC(=O)CCC(=O)OCCCCCN(CCSSCCN(CCCCCOC(=O)CCC(=O)Oc1c(C)c(C)c3c(c1C)CCC(C)(CCCC(C)CCCC(C)CCCC(C)C)O3)C(C)C)C(C)C)CCC(C)(CCCC(C)CCCC(C)CCCC(C)C)O2` (centres unmarked) [TS-C5P], in series [1], the PDI was found to be 0.13, the “size (nm)” value was determined as 125 nm and the “zeta (mV)” value is −6.4 mV.
Consider `Cc1c(C)c2c(c(C)c1OC(=O)CCC(=O)NCCCN(C)CCSSCCN(C)CCCNC(=O)CCC(=O)Oc1c(C)c(C)c3c(c1C)CCC(C)(CCCC(C)CCCC(C)CCCC(C)C)O3)CCC(C)(CCCC(C)CCCC(C)CCCC(C)C)O2` (centres unmarked) [TSamide-C3M], for which, in series [1], the “charge at physiological pH” value was “weak positive charge”, the PDI is 0.21, the “size (nm)” value is given as 93 nm and the “zeta (mV)” value came out at 7.0 mV.
`CCN(CCCCOC(=O)CCC(=O)Oc1c(C)c(C)c2c(c1C)CCC(C)(CCCC(C)CCCC(C)CCCC(C)C)O2)CCSSCCN(CC)CCCCOC(=O)CCC(=O)Oc1c(C)c(C)c2c(c1C)CCC(C)(CCCC(C)CCCC(C)CCCC(C)C)O2` (centres unmarked) [TS-C4E]: in series [1], the PDI came to 0.07, the “size (nm)” value is recorded as 118 nm and the “zeta (mV)” value is listed as −9.8 mV.
As for `CCCCCCCCCCCCCCCCCC(=O)OCCCN(C)CCSSCCN(C)CCCOC(=O)CCCCCCCCCCCCCCCCC` [Example B-2-2], in series [2], the PDI amounted to 0.132, the “size (nm)” value turned out to be 134.6 nm and the “zeta (mV)” value is −5.77 mV. In addition, the “gene expression activity (luciferase activity per cell protein)” value in the series with HT1080 cells is reported as “inferior to that of B-2, but exceeds that of conventional pH-responsive lipid cationic lipid, DODAP”.
In the case of `Cc1c(C)c2c(c(C)c1OC(=O)CCC(=O)OCC1CCCN(CCSSCCN3CCCC(COC(=O)CCC(=O)Oc4c(C)c(C)c5c(c4C)CCC(C)(CCCC(C)CCCC(C)CCCC(C)C)O5)C3)C1)CCC(C)(CCCC(C)CCCC(C)CCCC(C)C)O2` (centres unmarked) [TS-P3C1], in series [1], the PDI is on record as 0.13, the “size (nm)” value amounted to 118 nm and the “zeta (mV)” value is −9.8 mV.
In the same order, the values of `Cc1c(C)c2c(c(C)c1OC(=O)CCCC(=O)OCCCN(C)CCSSCCN(C)CCCOC(=O)CCCC(=O)Oc1c(C)c(C)c3c(c1C)CCC(C)(CCCC(C)CCCC(C)CCCC(C)C)O3)CCC(C)(CCCC(C)CCCC(C)CCCC(C)C)O2` (centres unmarked) [TG-C3M] are 0.13, 120 nm and −13.0 mV.
